Measurements taken from US20250034520A1, “INCREASING DEVELOPMENTAL POTENTIAL OF HUMAN PREIMPLANTATION EMBRYOS BY REDUCING GENETIC INSTABILITY, ANEUPLOIDIES AND CHROMOSOMAL MOSAICISM” (THE TRUSTEES OF COLUMBIA UNIVERSITY IN THE CITY OF NEW YORK, priority 2022, published 2025).

Columns and labels:
Format in all cases: cell-based
mouse 2-cell embryos = experiment: single-cell sequencing chromosome content analysis, mouse 2-cell embryos
Description: (§1) Embryos, mouse and human, were cultured in Global Total (Life-Global) for the duration of the experiments and with added compounds as outlined below. Incubation in RNA polymerase inhibitors triptolide (1 mM) or alpha amanitin (20 mg/ml) was performed from the 2PN stage (day1) to day3 of human development. Incubation in aphidicolin was performed at 2 mM. […] Mirin was used at a concentration of 50 mM. Olaparib was used to inhibit PARP at a concentration of 10 mM. All experiments were conducted during incubation at 37° C. with 5% CO2 and 19-20% O2. Chemical stock solutions were prepared in DMSO at concentrations at least 1000× higher than the final concentration.
Single cells from blastomeres were collected on the heated stage (Tokai Hit) of an Olympus IX71 inverted microscope equipped with Narishige micromanipulators and a zona pellucida laser (Hamilton-Thorne). Single nuclei were isolated from blastomeres by lysis and dissection of different nuclei using two […] diameter Piezo micropipettes and Holding pipette (Origio). Single embryo cells or nuclei were placed manually in single wells of a 96-well plate containing 9 ml of lysis buffer, prepared as a master mix of 798 ml H2O, 6 ml of 10 mg/mL Proteinase K solution (Sigma-Aldrich), and 96 ml 10× Single Cell Lysis and Fragmentation buffer (Sigma-Aldrich). Single cells/single nuclei were lysed by heating 96-well plates containing single cells/single nuclei at 50° C. for 1 hour, followed by incubation at 99° C. for four minutes using a PCR thermocycler. Single-cell/single-nuclei whole genome amplification (WGA) using degenerate oligo-nucleotide priming PCR (DOP-PCR) was performed using the SEQPLEX Enhanced DNA Amplification Kit (SEQXE, Sigma) according to the manufacturer's instructions. In addition, a modified version of the DOP-PCR protocol that allows inline indexing of WGA DNA was also applied. WGA DNA was subsequently processed for Illumina library sequencing preparation using standard TruSeq indexing methods via the NEBNext Ultra II DNA Library Prep Kit for Illumina (New England Biolabs). NEBNext Multiplex Oligos for Illumina (96 index primers) were used for four amplification cycles. Library DNA was quantified using Qubit dsDNA HS Assay Kit (Invitrogen, Carlsbad, CA, USA) and library size distribution was confirmed using a 2100 Bioanalyzer DNA 1000 Kit (Agilent, Santa Clara, CA, USA). A unimodal curve centered around 300-500 bp was scored as a successful library preparation. Subsequently, 30 mL of each pooled library was sent for sequencing at a concentration of 20 ng/ml. Mutiplex sequencing was performed using Illumina HiSeq 2500 single end indexed run (SR100) while targeting a coverage of approximately 1 million reads per cell/nuclei, sufficient for quantitative genome-wide copy number analysis.
Analysis of DNA sequencing data was performed as previously described (Baslan et al., 2015) with minor modifications as outlined below. Briefly, multiplex sequencing data were demultiplexed according to unique barcodes with reads assigned to their respective single-cell or single-nuclei. Unique reads were aligned to the reference human and mouse genome builds, hg19 and mm9, respectively. Each genome was partitioned into 5000 bins using a previously described algorithm (Varbin) that corrects for genome sequence mappability (Baslan et al., 2012; Navin et al., 2011). Uniquely mapped reads were sorted, indexed and subsequently counted within the partitioned genomic bins. For single-cell copy number inference, read count data were normalized genome-wide followed by CBS segmentation (Olshen et al., 2004) and transformed into integer copy number states using a least-squares fit approach (Baslan et al., 2015).

[1] = system: mouse parthenogenetic zygotes; experiment: anaphase figures at the first mitosis, mouse parthenogenetic zygotes
Description: as §1
Mouse oocytes were activated at 1-6 hours post retrieval using 2 mM ionomycin (Sigma Aldrich) in Global Total medium for 5 minutes at 37° C. followed by culture in 10 mM puromycin and 5 mg/ml cytochalasin B for 3 hours, then cytochalasinB only for 2 hours and 10 minutes to prevent second polar body extrusion.
Following the experimental exposures, mouse and human embryos were fixed in 2% paraformaldehyde (PFA) and 0.25% Triton X-100 in PBS for 10 minutes at room temperature, serially washed in phosphate-buffered solution (PBS) at room temperature, then stored in PBS at 4° C. until staining and imaging. Embryos were placed in 10-20 ml droplets of primary antibody solution within plastic tissue culture dishes covered with mineral oil for 1 hour at room temperature, serially washed (×2) in PBS containing 0.01% Triton X-100 to prevent embryos sticking to oil, then transferred to 10-20 ml secondary antibody solution and Hoechst (dilution 1:500) for 30 minutes. Embryos were then serially washed (×2) and placed in 5 ml droplets of PBS with 0.5% serum albumin in uncoated glass bottom dishes (Mattek) covered with embryo culture oil for imaging. The following primary antibodies were used across experiments as described above: Oct-4, γH2AX, RPA32, RPA32 S4/S8, RPA32 S33, 53BP1, RAD51, Centromere, and phospho-CHK1. Phospho-specific antibodies were quality controlled through ATR dependence of foci formation in mouse zygotes, and for γH2AX also in human zygotes. […] The appropriate secondary antibodies conjugated with Alexa Fluor 488, Alexa Fluor 555, CF 568, or Alexa Fluor 647 were diluted at 1:500-1:1000. Ethynyl deoxyuridine (EdU) labeling of zygotes and embryos was performed using the labeling kit (Thermo Fisher Scientific) as described by the manufacturer. 10 mM EdU was added to culture medium for 1 h at the indicated time points, and cells were harvested and fixed thereafter. 5-ethynyl uridine (EU) labeling was performed by incubating day3 cleavage stage embryos for 4 hours in Global total containing 0.2 mM EU.

human embryos = experiment: nucleation and development of human embryos
Description: Cryopreserved human cleavage-stage and blastocyst embryos and unfertilized oocytes were anonymously donated from individuals and couples who provided consent for use in research. Embryos were of good quality and had been cryopreserved for potential clinical use but were then no longer needed and donated for research. The cause of treatment is not disclosed. Range of maternal age of donated embryos is between 27-43. Embryos of both sexes were used, as provided by the unbiased fertilization of oocytes with sperm carrying either a Y or X chromosome. Cleavage stage embryos were thawed using the one-step thaw protocol using Global total with HEPES. Blastocyst stage embryos were thawed using the Quinn's Advantage thaw kit, then exposed to experimental conditions as outlined below. Vitrified embryos were thawed with the ECMPC warming solution set. Embryo culture was performed in Global Total. All experiments were conducted during incubation at 37° C. with 5% CO2 and 20% 02.
as §1
Following the experimental exposures, mouse and human embryos were fixed in 2% paraformaldehyde (PFA) and 0.25% Triton X-100 in PBS for 10 minutes at room temperature, serially washed in phosphate-buffered solution (PBS) at room temperature, then stored in PBS at 4° C. until staining and imaging. Embryos were placed in 10-20 ml droplets of primary antibody solution within plastic tissue culture dishes covered with mineral oil for 1 hour at room temperature, serially washed (×2) in PBS containing 0.01% Triton X-100 to prevent embryos sticking to oil, then transferred to 10-20 ml secondary antibody solution and Hoechst (dilution 1:500) for 30 minutes. Embryos were then serially washed (×2) and placed in 5 ml droplets of PBS with 0.5% serum albumin in uncoated glass bottom dishes (Mattek) covered with embryo culture oil for imaging. […]
Embryos were imaged with confocal microscopy using a Zeiss LSM (LSM 710) at a magnification of 63× and the Zeiss Zen software. […] Cell numbers and staining foci numbers were counted manually. […]

[2] = combined aphidicolin exposure and G2 checkpoint inhibition

C[C@@]1(CO)[C@H](O)CC[C@@]2(C)[C@H]1CC[C@H]1C[C@@H]3C[C@@]12CC[C@]3(O)CO [aphidicolin]
chromosomal abnormalities per cell (mouse 2-cell embryos; aphidicolin-treated): 0.62 per cell | blastomeres showing aneuploidy (mouse 2-cell embryos; aphidicolin-treated, controls 98% normal): 33% | aneuploidies per cell (mouse 2-cell embryos; both aphidicolin and G2 checkpoint inhibitor): 2.1 per cell | blastomeres showing aneuploidy (mouse 2-cell embryos; combination of aphidicolin and G2 checkpoint inhibition): 64.5% | chromosomes with aneuploidies per cell (mouse 2-cell embryos; [2]): 2 chromosomes per cell | euploid mouse 2-cell embryos (mouse 2-cell embryos; [2]): 35.5% | embryos with abnormal anaphase, range per experiment ([1]; aphidicolin in G2 phase): 7%-30% | embryos with abnormal anaphase ([1]; aphidicolin in G2 phase, controls 191/191 normal): 17.4% | effect on chromosome segregation at anaphase ([1]; applied only after pronuclear envelope breakdown): inconsequential | frequency of abnormal anaphase figures ([1]; both ATR kinase inhibitor and aphidicolin in G2 phase): 63% | formation of multinucleate cells (human embryos; 6 parthenogenetically activated embryos, aphidicolin and G2 checkpoint kinase inhibitor at 15.5 h): uniformly resulting in the formation of multinucleate cells | failure to polarize chromosomes in the nucleus (human embryos; aphidicolin-treated human parthenotes): 16/17
